PubChem BioAssay (NCI)
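Test compounds were applied to cells in 96-well plates for 48 hours at 5 doses. The concentration for full growth arrest is given as TGI.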

Key:
Test in all cases: NCI tumour cell line growth inhibition, 48 h
T-47D breast = test system: T-47D breast
IGROV1 ovarian = test system: IGROV1 ovarian
UACC-62 melanoma = test system: UACC-62 melanoma
RPMI-8226 leukemia = test system: RPMI-8226 leukemia
ACHN renal = test system: ACHN renal
HL-60(TB) leukemia = test system: HL-60(TB) leukemia
MDA-MB-435 = test system: MDA-MB-435
SF-295 CNS = test system: SF-295 CNS
SN12C renal = test system: SN12C renal
LOX IMVI melanoma = test system: LOX IMVI melanoma
MDA-MB-231 breast = test system: MDA-MB-231 breast
SK-OV-3 ovarian = test system: SK-OV-3 ovarian
KM12 colon = test system: KM12 colon
UACC-257 melanoma = test system: UACC-257 melanoma
SF-539 CNS = test system: SF-539 CNS
NCI-H23 lung = test system: NCI-H23 lung
CCRF-CEM leukemia = test system: CCRF-CEM leukemia
M14 melanoma = test system: M14 melanoma
NCI/ADR-RES ovarian = test system: NCI/ADR-RES ovarian
OVCAR-8 ovarian = test system: OVCAR-8 ovarian
SK-MEL-2 melanoma = test system: SK-MEL-2 melanoma
COLO 205 colon = test system: COLO 205 colon
HS 578T breast = test system: HS 578T breast
TK-10 renal = test system: TK-10 renal
HCT-15 colon = test system: HCT-15 colon
NCI-H522 lung = test system: NCI-H522 lung
K-562 leukemia = test system: K-562 leukemia
A498 renal = test system: A498 renal
HCT-116 colon = test system: HCT-116 colon
A549 NSCLC = test system: A549 NSCLC
CAKI-1 renal = test system: CAKI-1 renal
OVCAR-4 ovarian = test system: OVCAR-4 ovarian
NCI-H460 lung = test system: NCI-H460 lung
BT-549 breast = test system: BT-549 breast
EKVX NSCLC = test system: EKVX NSCLC
SK-MEL-5 melanoma = test system: SK-MEL-5 melanoma
OVCAR-5 ovarian = test system: OVCAR-5 ovarian
786-0 renal = test system: 786-0 renal
SNB-75 CNS = test system: SNB-75 CNS
SR leukemia = test system: SR leukemia
DU-145 prostate = test system: DU-145 prostate
MDA-N = test system: MDA-N
UO-31 renal = test system: UO-31 renal
PC-3 prostate = test system: PC-3 prostate
MALME-3M melanoma = test system: MALME-3M melanoma
MOLT-4 leukemia = test system: MOLT-4 leukemia
MCF7 breast = test system: MCF7 breast
HT29 colon = test system: HT29 colon
U251 CNS = test system: U251 CNS
SNB-19 CNS = test system: SNB-19 CNS
SF-268 CNS = test system: SF-268 CNS
OVCAR-3 ovarian = test system: OVCAR-3 ovarian
SK-MEL-28 melanoma = test system: SK-MEL-28 melanoma
SW-620 colon = test system: SW-620 colon
RXF 393 renal = test system: RXF 393 renal
HOP-62 NSCLC = test system: HOP-62 NSCLC
HOP-92 NSCLC = test system: HOP-92 NSCLC
NCI-H226 lung = test system: NCI-H226 lung

SMILES: C/C(=N\Nc1nc2ccccc2o1)c1ccc2ccccc2n1
- TGI (T-47D breast): 3.87 µM
- TGI (IGROV1 ovarian): 5.32 µM
- TGI (UACC-62 melanoma): 44.4 µM
- TGI (RPMI-8226 leukemia): 6.41 µM
- TGI (ACHN renal): 10.6 µM
- TGI (HL-60(TB) leukemia): 6.47 µM
- TGI (MDA-MB-435): > 100 µM
- TGI (SF-295 CNS): 56.5 µM
- TGI (SN12C renal): 56.8 µM
- TGI (LOX IMVI melanoma): > 100 µM
- TGI (MDA-MB-231 breast): > 100 µM
- TGI (SK-OV-3 ovarian): > 100 µM
- TGI (KM12 colon): > 100 µM
- TGI (UACC-257 melanoma): > 100 µM
- TGI (SF-539 CNS): > 100 µM
- TGI (NCI-H23 lung): 70.7 µM
- TGI (CCRF-CEM leukemia): 5.77 µM
- TGI (M14 melanoma): > 100 µM
- TGI (NCI/ADR-RES ovarian): 26.5 µM
- TGI (OVCAR-8 ovarian): 63.5 µM
- TGI (SK-MEL-2 melanoma): 15.2 µM
- TGI (COLO 205 colon): > 100 µM
- TGI (HS 578T breast): > 100 µM
- TGI (TK-10 renal): 68.5 µM
- TGI (HCT-15 colon): 59.9 µM
- TGI (NCI-H522 lung): 5.83 µM
- TGI (K-562 leukemia): > 100 µM
- TGI (A498 renal): 8.64 µM
- TGI (HCT-116 colon): 20.1 µM
- TGI (A549 NSCLC): > 100 µM
- TGI (CAKI-1 renal): 3.93 µM
- TGI (OVCAR-4 ovarian): 5.59 µM
- TGI (NCI-H460 lung): 30.6 µM
- TGI (BT-549 breast): > 100 µM
- TGI (EKVX NSCLC): 9.23 µM
- TGI (SK-MEL-5 melanoma): 14.3 µM
- TGI (OVCAR-5 ovarian): > 100 µM
- TGI (786-0 renal): 45.7 µM
- TGI (SNB-75 CNS): 28 µM
- TGI (SR leukemia): 3.72 µM
- TGI (DU-145 prostate): 37.3 µM
- TGI (MDA-N): > 100 µM
- TGI (UO-31 renal): 14.4 µM
- TGI (PC-3 prostate): 4.94 µM
- TGI (MALME-3M melanoma): 52.5 µM
- TGI (MOLT-4 leukemia): > 100 µM
- TGI (MCF7 breast): > 100 µM
- TGI (HT29 colon): 95.9 µM
- TGI (U251 CNS): 87.2 µM
- TGI (SNB-19 CNS): > 100 µM
- TGI (SF-268 CNS): 49.2 µM
- TGI (OVCAR-3 ovarian): 3.03 µM
- TGI (SK-MEL-28 melanoma): > 100 µM
- TGI (SW-620 colon): > 100 µM
- TGI (RXF 393 renal): 57.5 µM
- TGI (HOP-62 NSCLC): 58.7 µM

SMILES: COCCOc1nc(-c2ccccc2)nc2ccccc12
- TGI (T-47D breast): > 100 µM
- TGI (IGROV1 ovarian): > 100 µM
- TGI (UACC-62 melanoma): > 100 µM
- TGI (RPMI-8226 leukemia): 45.5 µM
- TGI (ACHN renal): > 100 µM
- TGI (HL-60(TB) leukemia): > 100 µM
- TGI (MDA-MB-435): > 100 µM
- TGI (SF-295 CNS): > 100 µM
- TGI (SN12C renal): > 100 µM
- TGI (LOX IMVI melanoma): > 100 µM
- TGI (MDA-MB-231 breast): > 100 µM
- TGI (SK-OV-3 ovarian): > 100 µM
- TGI (KM12 colon): > 100 µM
- TGI (UACC-257 melanoma): > 100 µM
- TGI (SF-539 CNS): > 100 µM
- TGI (NCI-H23 lung): > 100 µM
- TGI (M14 melanoma): 90 µM
- TGI (NCI/ADR-RES ovarian): > 100 µM
- TGI (OVCAR-8 ovarian): > 100 µM
- TGI (SK-MEL-2 melanoma): > 100 µM
- TGI (COLO 205 colon): > 100 µM
- TGI (HS 578T breast): 73 µM
- TGI (TK-10 renal): > 100 µM
- TGI (HCT-15 colon): 43.3 µM
- TGI (NCI-H522 lung): > 100 µM
- TGI (K-562 leukemia): > 100 µM
- TGI (A498 renal): 70 µM
- TGI (HCT-116 colon): > 100 µM
- TGI (A549 NSCLC): > 100 µM
- TGI (CAKI-1 renal): > 100 µM
- TGI (OVCAR-4 ovarian): > 100 µM
- TGI (NCI-H460 lung): 62 µM
- TGI (BT-549 breast): > 100 µM
- TGI (EKVX NSCLC): > 100 µM
- TGI (SK-MEL-5 melanoma): 88.3 µM
- TGI (OVCAR-5 ovarian): > 100 µM
- TGI (SNB-75 CNS): > 100 µM
- TGI (SR leukemia): 60.9 µM
- TGI (DU-145 prostate): > 100 µM
- TGI (MDA-N): > 100 µM
- TGI (UO-31 renal): > 100 µM
- TGI (PC-3 prostate): > 100 µM
- TGI (MALME-3M melanoma): > 100 µM
- TGI (MOLT-4 leukemia): 70.4 µM
- TGI (HOP-92 NSCLC): 87.6 µM
- TGI (MCF7 breast): > 100 µM
- TGI (HT29 colon): > 100 µM
- TGI (U251 CNS): > 100 µM
- TGI (SNB-19 CNS): > 100 µM
- TGI (SF-268 CNS): > 100 µM
- TGI (OVCAR-3 ovarian): > 100 µM
- TGI (SK-MEL-28 melanoma): > 100 µM
- TGI (SW-620 colon): > 100 µM
- TGI (RXF 393 renal): 30.6 µM
- TGI (HOP-62 NSCLC): > 100 µM

SMILES: S=C1Nc2cnc3ccccc3c2SC1c1ccccc1 (stereo not drawn)
- TGI (T-47D breast): > 100 µM
- TGI (IGROV1 ovarian): > 100 µM
- TGI (UACC-62 melanoma): > 100 µM
- TGI (RPMI-8226 leukemia): > 100 µM
- TGI (ACHN renal): > 100 µM
- TGI (HL-60(TB) leukemia): > 100 µM
- TGI (MDA-MB-435): > 100 µM
- TGI (SF-295 CNS): > 100 µM
- TGI (SN12C renal): > 100 µM
- TGI (LOX IMVI melanoma): > 100 µM
- TGI (MDA-MB-231 breast): > 100 µM
- TGI (SK-OV-3 ovarian): > 100 µM
- TGI (KM12 colon): > 100 µM
- TGI (UACC-257 melanoma): > 100 µM
- TGI (NCI-H23 lung): > 100 µM
- TGI (M14 melanoma): > 100 µM
- TGI (NCI/ADR-RES ovarian): > 100 µM
- TGI (OVCAR-8 ovarian): > 100 µM
- TGI (COLO 205 colon): > 100 µM
- TGI (HS 578T breast): > 100 µM
- TGI (TK-10 renal): > 100 µM
- TGI (HCT-15 colon): > 100 µM
- TGI (NCI-H522 lung): > 100 µM
- TGI (K-562 leukemia): > 100 µM
- TGI (NCI-H226 lung): > 100 µM
- TGI (HCT-116 colon): > 100 µM
- TGI (A549 NSCLC): > 100 µM
- TGI (CAKI-1 renal): > 100 µM
- TGI (OVCAR-4 ovarian): > 100 µM
- TGI (NCI-H460 lung): > 100 µM
- TGI (BT-549 breast): > 100 µM
- TGI (EKVX NSCLC): > 100 µM
- TGI (SK-MEL-5 melanoma): > 100 µM
- TGI (OVCAR-5 ovarian): > 100 µM
- TGI (786-0 renal): > 100 µM
- TGI (SNB-75 CNS): > 100 µM
- TGI (SR leukemia): > 100 µM
- TGI (DU-145 prostate): > 100 µM
- TGI (MDA-N): > 100 µM
- TGI (UO-31 renal): > 100 µM
- TGI (PC-3 prostate): > 100 µM
- TGI (MALME-3M melanoma): > 100 µM
- TGI (MOLT-4 leukemia): > 100 µM
- TGI (MCF7 breast): > 100 µM
- TGI (HT29 colon): > 100 µM
- TGI (U251 CNS): > 100 µM
- TGI (SNB-19 CNS): > 100 µM
- TGI (SF-268 CNS): > 100 µM
- TGI (OVCAR-3 ovarian): > 100 µM
- TGI (SK-MEL-28 melanoma): > 100 µM
- TGI (RXF 393 renal): 99.4 µM
- TGI (HOP-62 NSCLC): > 100 µM
